Entries after “also recorded” stand apart in the source; their conditions may differ. Like-named read-outs stand apart in the source and are kept apart here.
How the values were obtained:
[1] = Metabolism in vitro with mouse liver microsomes; format: in vitro ADME
Source text: (§1) This would support the hypothesis that the antiviral activity of 3-dApsU2′-OMe and other di-, and tri-nucleotides is due to the intact nucleotide structure and not due to its metabolites. This is in contrast to traditional antiviral nucleosides, which require metabolic activation and conversion to triphosphate derivatives for their action.

[2] = Stability in simulated intestine fluid (SIF); format: in vitro ADME; settings: 1 h at 37° C.
Method: (§2) The stability of prodrugs in simulated gastric fluid (SGF) and simulated intestine fluid (SIF) at 37° C. were examined. SGF and SIF were prepared following reported procedures and prodrugs were incubated separately with SGF and SIF for 1 h at 37° C., processed, and analyzed using reverse-phase HPLC.

[3] = format: in vitro ADME
Source text: However, the challenge in the case of nucleotides and dinucleotides is that they contain highly acid-labile purine and pyrimidine moieties in their structures. Thus, although masking the negative charge of these molecules might aid in their cellular diffusion by increased lipohilicity, it is not known whether they will be stable in gastric mucosa long enough to be absorbed orally. […] Such degradative process is known to occur by initial protonation of nitrogen of the nucleobase followed by depurination and cleavage of the sugar ring.
as §2

[4] = Pharmacokinetic study in woodchuck, intravenous; format: in vivo
Source text: (§3) This is in contrast to traditional antiviral nucleosides, which require metabolic activation and conversion to triphosphate derivatives for their action.

HBV = settings: Iyer et al., Antimicrob. Agents and Chemotherapy, 48, 2318-2320, 2004; cited from earlier work
[5] = Metabolism in vitro with human liver microsomes; format: in vitro ADME
Source text: as §1, §3

bovine chymotrypsin = bovine chymotrypsin (Bos taurus, UniProt P00766)
pig liver esterase (PLE) = test system: pig liver esterase (PLE)
Method: (§4) Evaluation of bioreversibility of the pronucleotides was carried out in rabbit serum in phosphate buffer at 37° C. In order to monitor the hydrolytic conversion of the pronucleotides to the dinucleotide 5, aliquots of incubate were removed at different time points, processed, and analyzed using reversed-phase HPLC.

[6] = pH 7.2
Method: as §4

[7] = Bioreversibility (hydrolytic conversion to parent dinucleotide 5) in rabbit serum, HPLC; settings: for t1/2 (min) in serum: rabbit; for time for almost complete conversion to 3′dApsU2′-OMe on serum treatment: rabbit serum, 37° C.
Method: as §4
Bioreversibility studies were carried out as follows: A stock solution of each analog was prepared by dissolving 2 mg in 100 μL of DMSO. 10 μL aliquots were diluted with 90 μL of phosphate buffer (0.1 M, pH 7.0) and 100 μL aliquots of rabbit serum. The mixture was incubated at 37° C. in a water bath. Aliquots were removed at different time points and diluted with 200 μL of methanol to stop the reaction. The incubate was then centrifuged, supernatant concentrated in a speed vac and diluted with 200 μL of 0.1 M ammonium acetate buffer prior to injection into HPLC. Reversed-phase HPLC analysis was carried out using a Waters Instrument equipped with a 600Egradient controller, and a 996 photodiode array detector with Millennium software. X-terra MS C18 2.5 μm, 2.1×20 mm column and an operating gradient of 100% A to 80% B over 30 minutes of buffer A (0.1 M NH4OAc) and buffer B (80:20, CH3CN:NH4OAc) was employed. Retention time for prodrugs ranged from 16 to 18 minutes whereas that of the Rp,Sp dinucleotide 5 was 13.5, 13.8 minutes.

Vero = experiment: Cytotoxicity assay, Vero cell line
Method: (§5) We next examined the cytotoxicity profile of the pronucleotide derivatives in different cell lines such as MDBK, Vero, and HFF.
(§6) Standard MTF assays were performed in 96-well plates using the Promega CellTiter96 Non-radioactive Cell Proliferation Assay Kit in conjunction with a 96-well Plate Reader (ThermoMax, Molecular devices), and using MDBK, Vero, and TIFF cell lines (obtained from ATCC). Several controls were employed including the nucleoside analogs 3TC, AZT, and ddC, as well as, media without drugs. SDS was used as a positive cytotoxic control. All pronucleotides were tested in triplicate at concentrations of 100, 300, and 1000 μM. Following a 24-hour incubation of cells with the test substance, the MTF assay was carried out.

HFF = experiment: Cytotoxicity assay, HFF cell line
Method: as §5, §6

MDBK = experiment: Cytotoxicity assay, MDBK cell line
Method: as §5, §6

human hepatitis B virus = format: in vivo, transgenic mice
[8] = Weight change and apparent toxicity in the HBV transgenic mouse study
Method: Male and female transgenic mice (founder 1.3.32) were infected with human hepatitis B virus. […] The positive control, ADV, was administered at 10 mg/kg/d. Statistical significance is indicated as *P≤0.05, **P≤0.01, ***P≤0.001 compared to placebo vehicle. Measurements of serum HBeAg, PEI are reported according to International Immuno Diagnostics standardized assay using Paul Ehrlich International Units (PEI U).

[9] = oral once daily for 14 days, 6a 400, 6k 300, ADV 10 mg/kg/d

## COC1C(OP(=O)([S-])OCC2OC(n3cnc4c(N)ncnc43)CC2O)C(CO)OC1n1ccc(=O)[nH]c1=O.[Na+] (mixture of isomers) [3-dApsU2′-OMe]
[1]
  significant metabolism in vitro: do not occur
[2]
  stability in SIF: relatively stable
[3]; SGF, 37° C.
  time of decomposing in SGF: about 15 min
[3]; simulated gastric fluid
  half-life in simulated gastric fluid: less than 10 minutes
[4]; IV
  elimination in the urine: mostly intact material
[4]; intravenous (IV) administration
  plasma half-life: about 1 h
HBV
  anti-HBV activity in the transgenic mouse model: excellent anti-HBV activity
[5]
  significant metabolism in vitro: do not occur; also recorded: absence of significant metabolism

## COC1C(OP(=O)(OCC2OC(n3cnc4c(N)ncnc43)CC2O)SCc2ccc(OC(=O)C(C)C)cc2)C(CO)OC1n1ccc(=O)[nH]c1=O (mixture of isomers) [Compound 6b]
Bovine chymotrypsin
  hydrolytic action of bovine chymotrypsin: resistant
Pig liver esterase (PLE)
  hydrolytic action of pig liver esterase (PLE): resistant
[6]
  time stable in phosphate buffer: up to 24 h
[7]
  time for complete conversion to the parent 5: ~3 h
Vero
  CC50: > 1000 µM
HFF
  CC50: > 1 mM
MDBK
  CC50: > 1000 µM

## COC1C(OP(=O)(OCC2OC(n3cnc4c(N)ncnc43)CC2O)SCc2ccc(NC(C)=O)cc2)C(CO)OC1n1ccc(=O)[nH]c1=O (mixture of isomers) [Compound 6d]
Vero
  CC50: > 1000 µM
HFF
  CC50: > 1 mM
MDBK
  CC50: > 1000 µM

## COC1C(OP(=O)(OCC2OC(n3cnc4c(N)ncnc43)CC2O)SCCCCOC(C)=O)C(CO)OC1n1ccc(=O)[nH]c1=O (mixture of isomers) [Compound 6e]
[7]
  t1/2 (min) in serum: >60^@ min
Vero; read-out: CC50(μM) Vero, Table 4, 24-hour incubation
  CC50: > 1000 µM
MDBK; read-out: CC50(μM) MDBK, Table 4, 24-hour incubation
  CC50: > 1000 µM

## COC1C(OP(=O)(OCC2OC(n3cnc4c(N)ncnc43)CC2O)SCCCCOC(=O)c2ccccc2)C(CO)OC1n1ccc(=O)[nH]c1=O (mixture of isomers) [Compound 6f]
[7]
  t1/2 (min) in serum: >120^@ min
Vero
  CC50: > 1000 µM
MDBK
  CC50: > 1000 µM

## COC1C(OP(=O)(OCC2OC(n3cnc4c(N)ncnc43)CC2O)SCCCCOC(=O)c2cccnc2)C(CO)OC1n1ccc(=O)[nH]c1=O (mixture of isomers) [Compound 6g]
[7]
  t1/2 (min) in serum: >120^@ min
Vero
  CC50: > 1000 µM
HFF
  CC50: > 1 mM
MDBK
  CC50: > 1000 µM

## COC1C(OP(=O)(OCC2OC(n3cnc4c(N)ncnc43)CC2O)SCCCCNC(=O)c2ccccc2)C(CO)OC1n1ccc(=O)[nH]c1=O (mixture of isomers) [Compound 6i]
Vero
  CC50: > 1000 µM
MDBK
  CC50: > 1000 µM

## COC1C(OP(=O)(OCC2OC(n3cnc4c(N)ncnc43)CC2O)SCCCCNC(=O)c2cccnc2)C(CO)OC1n1ccc(=O)[nH]c1=O (mixture of isomers) [Compound 6j]
Vero
  CC50: > 1000 µM
HFF
  CC50: > 1 mM
MDBK
  CC50: > 1000 µM

## COC1C(OP(=O)(OCC2OC(n3cnc4c(N)ncnc43)CC2O)SCOC(=O)OCC(C)C)C(CO)OC1n1ccc(=O)[nH]c1=O (mixture of isomers) [Compound 6s]
Vero
  Cytotoxicity assay (um) Vero: >1000 um
HFF
  Cytotoxicity assay (um) HFF: >1000 um
MDBK
  Cytotoxicity assay (um) MDBK: >1000 um

## COC1C(OP(=O)(OCC2OC(n3cnc4c(N)ncnc43)CC2O)SCOC(=O)OC(C)(C)C)C(CO)OC1n1ccc(=O)[nH]c1=O (mixture of isomers) [Compound 6t]
Vero
  Cytotoxicity assay (um) Vero: >1000 um
HFF
  Cytotoxicity assay (um) HFF: >1000 um
MDBK
  Cytotoxicity assay (um) MDBK: >1000 um

## CCCCOCCOC(=O)OCSP(=O)(OCC1OC(n2cnc3c(N)ncnc32)CC1O)OC1C(CO)OC(n2ccc(=O)[nH]c2=O)C1OC (mixture of isomers) [Compound 6u]
Vero
  Cytotoxicity assay (um) Vero: >1000 um
HFF
  Cytotoxicity assay (um) HFF: >1000 um
MDBK
  Cytotoxicity assay (um) MDBK: >300 um

## CC(C)(C)C(=O)OCOP(=O)(COCCn1cnc2c(N)ncnc21)OCOC(=O)C(C)(C)C [ADV, adefovir dipivoxil, reference compound]
Human hepatitis B virus; mouse, in vivo
  Liver HBV RNA (log transcripts ± sd): 10.5 ± 0.4 log transcripts
  QPCR Liver HBV DNA (pg/μg mean ± sd): 1.7 ± 1.1 pg/µg
  Serum HBeAg, PEI U/mL (mean ± sd): 59 ± 9.7 PEI U/mL
  Serum HBsAg (signal/cutoff units ± sd): 73 ± 52 signal/cutoff units
  Southern blot Liver HBV DNA (pg/μg mean ± sd): 0.9 ± 1.1 pg/µg

## CO[C@H]1C(OP(=O)(OC[C@H]2O[C@@H](n3cnc4c(N)ncnc43)CC2O)SCOC(=O)OC(C)C)[C@@H](CO)O[C@H]1n1ccc(=O)[nH]c1=O (some centres unmarked) [Compound 6k, S-isopropylcarbonyloxymethyl Thiophosphate Derivative 6k of 3′dApsU2′OMe]
[8]; 400 mg/kg/d (6a), 300 mg/kg/d (6k), oral, 14 days
  apparent toxicity at the high doses employed: no apparent toxicity
[8]; [9]
  % weight change ± sd: 4.3 ± 1.8%
[7]
  time for almost complete conversion to 3′dApsU2′-OMe on serum treatment: ~3 h
Human hepatitis B virus; [9]
  Liver HBV RNA (log transcripts ± sd): 10.8 ± 0.4 log transcripts
  QPCR Liver HBV DNA (pg/μg mean ± sd): 13.3 ± 12 pg/µg
  Serum HBeAg, PEI U/mL (mean ± sd): 67 ± 0.6 PEI U/mL
  Serum HBsAg (signal/cutoff units ± sd): 55 ± 59 signal/cutoff units
  Southern blot Liver HBV DNA (pg/μg mean ± sd): 5.7 ± 3.2 pg/µg
Vero; Table 5, 24-hour incubation
  Cytotoxicity assay (um) Vero: >1000 um
HFF; Table 5, 24-hour incubation
  Cytotoxicity assay (um) HFF: >1000 um
MDBK; Table 5, 24-hour incubation
  Cytotoxicity assay (um) MDBK: >1000 um

## CO[C@H]1C(OP(=O)(OC[C@H]2O[C@@H](n3cnc4c(N)ncnc43)CC2O)SCOC(=O)CCC(C)C2CCC3C4CCC5CC(O)CCC5(C)C4CC(O)C23C)[C@@H](CO)O[C@H]1n1ccc(=O)[nH]c1=O (some centres unmarked) [Compound 6l]
Vero; Table 5, 24-hour incubation
  Cytotoxicity assay (um) Vero: >1000 um
HFF; Table 5, 24-hour incubation
  Cytotoxicity assay (um) HFF: >1000 um
MDBK; Table 5, 24-hour incubation
  Cytotoxicity assay (um) MDBK: >1000 um

## CO[C@H]1C(OP(=O)(OC[C@H]2O[C@@H](n3cnc4c(N)ncnc43)CC2O)SCOC(=O)C(Cc2ccccc2)NC(=O)OC(C)(C)C)[C@@H](CO)O[C@H]1n1ccc(=O)[nH]c1=O (stereo partly drawn) [Compound 6m, N-(t-butoxycarbonyl)-L-phenylalaninate Analog 6m of 3′dApsU2′OMe]
[7]
  time for almost complete conversion to 3′dApsU2′-OMe on serum treatment: ~3 h
Vero; Table 5, 24-hour incubation
  Cytotoxicity assay (um) Vero: >1000 um
HFF; Table 5, 24-hour incubation
  Cytotoxicity assay (um) HFF: >1000 um
MDBK; Table 5, 24-hour incubation
  Cytotoxicity assay (um) MDBK: >1000 um
